Measurements reported in US20150246087A1, “EXTRACTS AND THERAPEUTIC USES THEREOF” (REGENERA PHARMA LTD., priority 2012, published 2015).
“And” between values parts separate entries of the source, which are not always exact repeats. Identical values can stand only once.

Tests used:
ARPE-19 cells = assay: Neuronal-like differentiation of ARPE-19 retinal pigment epithelial cell cultures; format: cell-based, human; conditions: 2-10% w/w in cottonseed oil, compared to vehicle control
Experimental: ARPE-19 cells (obtained from the American Type Culture Collection, ATCC) were plated in flat bottom 96 well tissue culture microplates (Costar) at a concentration of 2-5×10^3 cells per well (1-2.5×10^4 cells/mL) in a growth medium consisting of DMEM:Ham F-12, 1:1, supplemented with 10% Fetal Bovine Serum, […] glutamine, 100 units/mL penicillin and 100 μg/mL streptomycin. The cells were allowed to adhere to the plate surfaces overnight prior to treatment with either RPh-CY or RPh-SA.
RPh-CY and RPh-SA were prepared essentially as described in Examples 2 and 4 respectively, to provide 10% solutions in a carrier composed of grape seed oil, olive oil, cottonseed oil, and Mygliol® (Mygliol® 810 or Mygliol® 812). […]
The cultures were incubated in a 37° C., 5% CO2 incubator for 48 hr. The medium was then removed, the cultures washed twice with phosphate buffered saline (PBS), fixed with absolute methanol for 10 min and stained with Hemacolor® reagents (Boehringer Mannheim), which stain cells in a manner similar to Giemsa, and may be used in a quantitative cell viability assay (see Keisari, Y. A colorimetric microtiter assay for the quantitation of cytokine activity on adherent cells in tissue culture. J. Immunol. Methods 146, 155-161, 1992). […]

3T3 cells = assay: Cytotoxicity in 3T3 cells (XTT kit); format: cell-based; conditions: DMSO 10% control; 48 hr; single well of triplicate
Experimental: 3T3 cells (ATCC; CRL-1658) were seeded in a 96 well plate (4×10^3 cells per well), and 24 hr following cell adherence, cells were treated (in triplicate) with different concentrations (1-50 mg/ml) of the test items, or with the control items cottonseed oil alone, or 10% DMSO, or were left untreated. All treatments were introduced in a final volume of […] within a total volume of 100 μl/well. Cytotoxicity was determined 48 hr after additional of test items, using the XTT kit (Biological industries, Israel). Raw data was analyzed using Prism4 statistical software following blank reduction. The cottonseed oil vehicle treated control was used to calculate 100% viability and OD % was calculated.

SMILES | change in ARPE-19 RPE cells (neurodifferentiation assay) (ARPE-19 cells) | OD at 450 (XTT) (3T3 cells)
CC(C)c1c(O)ccc2c1CC[C@H]1C(C)(C)CCC[C@]21C [totarol] | induced no change | –
C[S+](C)[O-] [DMSO] | – | 0.238 and 0.233 and 0.234
